Literature values, collected in patent publication US12544334B2, “Metabolisable pH sensitive polymersomes” (UCL BUSINESS LTD, priority 2018, dated 2026).

Conditions: imidazole-bearing acid before conjugation to the cysteine N-terminus

Row | SMILES | pKa
1 | O=C(O)Cn1ccnc1 [1H-imidazole-1-acetic acid] | 6.8
2 | O=C(O)Cc1c[nH]cn1 [4-imidazolacetic acid] | 6.6
